Experimental findings from patent US6391576B1, “Method for isolating a microbe” (Japan Bioindustry Association, priority 1999, dated 2002) are described below.

In this assay the test system is microorganisms in the activated sludge. The experiment in a line: Colony formation on NUTRIENT BROTH agar plates inoculated with activated sludge cell dispersion. The conditions noted are these: 30° C.; for Growth of the microorganisms in the activated sludge (in words): 0.1 w/w % on plate. It counts as cell-based. How it is done: Ten ml of activated sludge obtained from a food manufacturer's factory were filtered through gauze. The filtered activated sludge was stirred, subjected to ultra-sonics, added with a saline solution, and further stirred to allow cells to disperse well in the filtered activated sludge. The cell dispersion was diluted with a saline solution to 3×10^4 cells/ml as determined by staining with 6-carboxy-fluorescein diacetate (J. Porter et al. J. Appl. Bacteriol., Vol. 79, 399-408 (1995)).
The medium used was NUTRIENT BROTH (DIFICO), an 1:3 mixture of Bact Beef® and Bact Peptone®) added with 0.2% glucose and 2% agar. The medium was heat-sterilized and allowed to coagulate in plates. The plates were added with 0.1 w/w % of the compound shown in Table 3 and inoculated with 0.1 ml of the cell dispersion solution, and incubated at 30° C. After 2 or 10 days incubation, the number of colonies formed on the plates was counted.

The mark [1] stands for this setting: 0.1 w/w % cyclodextrin compound on plate, 0.1 ml cell dispersion.
Where [2] appears, read: 0.1 w/w % polysaccharide on plate.

Regarding `COC[C@H]1O[C@@H]2O[C@H]3[C@H](OC)[C@@H](OC)[C@@H](O[C@H]4[C@H](OC)[C@@H](OC)[C@@H](O[C@H]5[C@H](OC)[C@@H](OC)[C@@H](O[C@H]6[C@H](OC)[C@@H](OC)[C@@H](O[C@H]7[C@H](OC)[C@@H](OC)[C@@H](O[C@H]8[C@H](OC)[C@@H](OC)[C@@H](O[C@H]1[C@H](OC)[C@H]2OC)O[C@@H]8COC)O[C@@H]7COC)O[C@@H]6COC)O[C@@H]5COC)O[C@@H]4COC)O[C@@H]3COC` [2,3,6-Tri-O-methyl-β-cyclodextrin], the “Growth of the microorganisms in the activated sludge (in words)” value (shortened to “Growth of the microorganisms”) is listed as “promoted the growth”. Further, under setting [1], the “Colony/plate formed after incubation of 2 days” value (“Colony/plate formed … of 2 days” below) is reported as 220 Colony/plate and the “Colony/plate formed after incubation of 10 days” value (“Colony/plate formed … of 10 days” for short) is listed as 650 Colony/plate.

As to `COC[C@H]1O[C@@H]2O[C@H]3[C@H](O)[C@@H](OC)[C@@H](O[C@H]4[C@H](O)[C@@H](OC)[C@@H](O[C@H]5[C@H](O)[C@@H](OC)[C@@H](O[C@H]6[C@H](O)[C@@H](OC)[C@@H](O[C@H]7[C@H](O)[C@@H](OC)[C@@H](O[C@H]8[C@H](O)[C@@H](OC)[C@@H](O[C@H]1[C@H](O)[C@H]2OC)O[C@@H]8COC)O[C@@H]7COC)O[C@@H]6COC)O[C@@H]5COC)O[C@@H]4COC)O[C@@H]3COC` [2,6-Di-O-methyl-β-cyclodextrin], the “Growth of the microorganisms” value is listed as “promoted the growth”. In addition, under setting [1], the “Colony/plate formed … of 2 days” value stood at 520 Colony/plate and the “Colony/plate formed … of 10 days” value is given as 1,060 Colony/plate.

Take `OC[C@H]1O[C@@H]2O[C@H]3[C@H](O)[C@@H](O)[C@@H](O[C@H]4[C@H](O)[C@@H](O)[C@@H](O[C@H]5[C@H](O)[C@@H](O)[C@@H](O[C@H]6[C@H](O)[C@@H](O)[C@@H](O[C@H]7[C@H](O)[C@@H](O)[C@@H](O[C@H]8[C@H](O)[C@@H](O)[C@@H](O[C@H]9[C@H](O)[C@@H](O)[C@@H](O[C@H]1[C@H](O)[C@H]2O)O[C@@H]9CO)O[C@@H]8CO)O[C@@H]7CO)O[C@@H]6CO)O[C@@H]5CO)O[C@@H]4CO)O[C@@H]3CO` [γ-Cyclodextrin]: the “Growth of the microorganisms” value is “promoted the growth”. In addition, under setting [1], the “Colony/plate formed … of 2 days” value is given as 210 Colony/plate and the “Colony/plate formed … of 10 days” value came to 640 Colony/plate.

Regarding `OC[C@H]1O[C@@H]2O[C@H]3[C@H](O)[C@@H](O)[C@@H](O[C@H]4[C@H](O)[C@@H](O)[C@@H](O[C@H]5[C@H](O)[C@@H](O)[C@@H](O[C@H]6[C@H](O)[C@@H](O)[C@@H](O[C@H]7[C@H](O)[C@@H](O)[C@@H](O[C@H]1[C@H](O)[C@H]2O)O[C@@H]7CO)O[C@@H]6CO)O[C@@H]5CO)O[C@@H]4CO)O[C@@H]3CO` [α-Cyclodextrin], under setting [1], the “Colony/plate formed … of 2 days” value is given as 120 Colony/plate and the “Colony/plate formed … of 10 days” value is on record as 320 Colony/plate.

For Glucomannan, under setting [2], the “Colony/plate formed … of 2 days” value is 190 Colony/plate and the “Colony/plate formed … of 10 days” value was found to be 650 Colony/plate.

In the case of Dextran, under setting [2], the “Colony/plate formed … of 2 days” value is on record as 146 Colony/plate and the “Colony/plate formed … of 10 days” value stood at 350 Colony/plate.

In the case of Pullulan, under setting [2], the “Colony/plate formed … of 2 days” value was determined as 180 Colony/plate and the “Colony/plate formed … of 10 days” value is recorded as 600 Colony/plate.

Turning to `OC[C@H]1O[C@@H]2O[C@H]3[C@H](O)[C@@H](O)[C@@H](O[C@H]4[C@H](O)[C@@H](O)[C@@H](O[C@H]5[C@H](O)[C@@H](O)[C@@H](O[C@H]6[C@H](O)[C@@H](O)[C@@H](O[C@H]7[C@H](O)[C@@H](O)[C@@H](O[C@H]8[C@H](O)[C@@H](O)[C@@H](O[C@H]1[C@H](O)[C@H]2O)O[C@@H]8CO)O[C@@H]7CO)O[C@@H]6CO)O[C@@H]5CO)O[C@@H]4CO)O[C@@H]3CO` [β-Cyclodextrin], under setting [1], the “Colony/plate formed … of 2 days” value is given as 105 Colony/plate and the “Colony/plate formed … of 10 days” value amounted to 350 Colony/plate.

In the case of Cellulose, under setting [2], the “Colony/plate formed … of 2 days” value worked out at 244 Colony/plate and the “Colony/plate formed … of 10 days” value is reported as 685 Colony/plate.

In the case of 2-Hydroxypropyl-β-cyclodextrin, the “Growth of the microorganisms” value is listed as “promoted the growth”. Under setting [1], the “Colony/plate formed … of 2 days” value is recorded as 270 Colony/plate and the “Colony/plate formed … of 10 days” value is reported as 710 Colony/plate.

In the case of Glycogen, under setting [2], the “Colony/plate formed … of 2 days” value is on record as 210 Colony/plate and the “Colony/plate formed … of 10 days” value is 830 Colony/plate.

As to Curdlan, under setting [2], the “Colony/plate formed … of 2 days” value is recorded as 220 Colony/plate and the “Colony/plate formed … of 10 days” value is 745 Colony/plate.
